{"source": "patent US12565680B2", "about": "“Cancer neoantigens and their utilities in cancer vaccines and TCR-based cancer immunotherapy” (THE METHODIST HOSPITAL SYSTEM, priority 2018, dated 2026)", "key": {"T-cell clones of 135TIL": {"tested_on": "T-cell clones of 135TIL", "assay": "IFN-γ ELISA with tumor-reactive T-cell clones of 135TIL", "type": "cell-based, human", "text": "Thus, immunogenic antigens can be generated from various sources or mechanisms [such as alternative ORFs, noncoding regions (3′ and 5′ UTRs, introns, noncoding RNA)]. […] All other tumor-reactive CD4^+ T-cell clones and CD8^+ T-cell clones recognized the mutation-derived neoantigens. […] To identify these two antigens recognized by these two CD4^+ T-cell clones, an Ii-fusion cDNA library derived from 135 mel tumor cells was constructed using experimental procedures. The Ii-fusion cDNA library pools (approximately 100 cDNA clones per pool) were transfected into 293IMDR3/DP4 or 293IMDR4/DP4 cells, followed by co-culturing with CD4^+ T-cell clones (135-1C1 or 135-1E1). After 2×10^5 cDNA clones, positive cDNA library pools that stimulate two T-cell clones, respectively, were identified based on IFN-γ release by ELISA (FIG. 6B). The positive pools were then transformed into Stbl3™ Escherichia coli, and single bacteria colonies were picked for plasmid DNA isolation. The screening assays were repeated in the same APCs transfected with the single cDNA-containing plasmids, and identified three clones that were able to stimulate 135-1C1 T cells, and two clones that reacted with 135-1E1 T cells (FIG. 6C). […] The 135-1E1 T cell-reactive cDNA clones encoded the product translated from an alternative reading frame of CTAG2 (LAGE1b) (FIG. 6C and FIG. 7A). […] LAGE1 is a cancer-testis antigen, with over 80% amino acid sequence identical to NY-ESO-1 protein, which is the most immunogenic tumor antigen identified to date. To define the T cell epitopes, wee generated a series of deletions and truncations of 3′ UTR region of ADIPOR2 gene, and narrowed down T cell epitope to a 26 aa peptide-coding sequence that stimulate 135-1C1 T cell response (FIG. 7D). Using similar approach, T cell epitopes were narrowed down to a 69 aa peptide-coding sequence of the LAGE1b alternative ORF2 for 135-1E1 T-cell recognition (FIG. 7E).\nUsing systemic and multiple approaches, 8 cancer neoantigens were identified in 135 mel and 7 neoantigens in 136 mel. To understand the potential mechanisms that restrain the number of neoantigens that could induce T cell response, it was asked whether these neoantigens were equally recognized by T cells.\nT-cell cloning and expansion were performed. Briefly, T-cell clones from 135TILs were generated by a limited dilution (0.3 cell/well) in 96-well plates. Allogeneic PBMCs from normal donors were irradiated (60 Gy) and then seeded as feeder cells (7×10^4/well) in TCM containing 35 ng/ml OKT3 (anti-hCD3 antibody) (R&D Systems) and 35 ng/ml anti-hCD28 antibody (R&D Systems). On day 1, recombinant IL-2 was added to the final concentration of 300 IU/ml. On day 5, half of the culture medium was replaced with fresh TCM containing recombinant IL-2, and then the medium was changed every other day or when the medium color turned yellow. On day 14, T-cell clones were harvested, counted, tested for tumor reactivity. Tumor reactive T-cell clones were further expanded.\n(§1) 96-well tissue culture plates were coated with phosphate-buffered saline (PBS, GenDEPOT) containing 50 μg/ml poly-L-lysine (Millipore Sigma) at 37° C. 10 min later, the plates were rinsed twice with PBS. Tumor cells or 293-APCs were seeded at 5×10^4/well in the 96-well plate and cultured at 37° C., 5% CO2 for at least 4 h. For plasmid transfection, 250 ng of plasmid DNA were transfected into 293-APCs per well with 0.5 μl of Lipofectamine 2000 (Thermo Fisher Scientific) according to the manufacturer's instructions and incubated at 37° C., in 5% CO2 overnight. For peptide presentation, synthesized peptides (GeneScript) were added to each well at different final concentrations from 10^2 to 10^−4 μM and incubated at 37° C., 5% CO2. The cells transfected with plasmids or pulsed with peptides were washed with TCM twice, and then cocultured with T cells (1×10^5/well). After overnight culture, 50 μl of supernatant was collected for measuring cytokine release with an ELISA assay. […]"}, "135TIL [1]": {"tested_on": "135TIL", "assay": "IFN-γ ELISA with bulk 135TIL (IVT-RNA electroporated 135EBV-B cells; peptide titration and truncation)", "type": "cell-based, human", "conditions": "serially diluted peptides", "experimental": "Due to low transfection efficiency of EBV-B cells, in vitro transcribed (IVT) RNA of 24 TMGs were generated and then electroporated them into 135EBV-B cells, followed by adding 135TIL cells for antigen recognition based on cytokine release assay.\nas §1, with “(1×10^5/well).” for “(1×10^5/well). After overnight culture, 50 μl of supernatant was collected for measuring cytokine release with an ELISA assay.”\n96-well microplate (Greiner Bio-one) was coated with 50 μl of PBS containing anti-human IFN-γ (Thermo Fisher Scientific, primary antibody, 1 μg/ml) per well and incubated at 4° C. overnight. […] The plate was read at OD450 nm. The concentration of IFN-γ was calculated by standard reading. […]"}, "135TIL [2]": {"tested_on": "135TIL", "assay": "Intracellular staining of IFN-γ after neoantigen peptide stimulation, 135TIL", "type": "cell-based, human", "experimental": "T cells were stimulated by various in vitro methods, such as tumor cells, peptides or DNA encoding neoantigens, etc. and induced to release cytokines. Stimulated T cells were resuspended in 100 μl of Cytofix/Cytoperm solution (BD Biosciences) per well for microwell plates (or 250 μl for tubes) and incubated for 20 min at 4° C. for cell fixation. Fixed cells were permeabilized by washing twice in 1× Perm/Wash buffer (BD Biosciences). Then the fixed/permeabilized cells were thoroughly resuspended in 50 μl of 1× Perm/Wash buffer containing 1 μl of phycoerythrin (PE)-conjugated IFN-γ antibody (Thermo Fisher Scientific) and incubate at 4° C. for 30 min in the dark. After that the cells were washed twice with 1× Perm/Wash buffer and ready for flow cytometric analysis."}, "135TIL [3]": {"tested_on": "135TIL", "assay": "TCR β CDR3 repertoire analysis", "set-up": "species or system human", "conditions": "TCRβ CDR3 profiling", "text": "To address this issue, PCDHB16 neoantigen-specific CD4^+ T cells were isolated by FACS sorting of PCDHB16-neoantigen T cells from freshly generated bulk T cells after stimulated PCDHB16 neoepitope peptide-pulsed 135EBV-B cells. Using the similar approach, MPG-specific CD8+ T cells were also purified from freshly generated bulk T cells after stimulated MPG neoepitope peptide-pulsed 135EBV-B cells. Genomic DNAs were isolated from the two purified neoantigen-specific T cell populations, as well as the parental bulk T cells, and used as templates for TCR β-chain CDR3 repertoire amplification. […] After the amplicons (from PCDHB16-, MPG-specific T cells and bulk 135TIL) were subjected to deep-sequenced via next-generation sequencing (reads>100,000 per sample), followed by bioinformatic analysis and TCR repertoire alignment. […] The relative TCR sequence frequencies that were identical to those in PCDHB16-specific T cells and MPG-specific T cells were determined in total 135TIL cell population (FIG. 10F). […]\nCytokine Secretion Assay-Detection Kit (MACS Miltenyi Biotec) was used in cell-surface IFN-γ staining based on a commercial protocol. […] Finally cells were washed with cold buffer and ready for flow cytometric analysis. […]"}}}
{"sequence": "MKLTSLMCNPVKSPFFGCVCGHVPISMCVSTCSSLPTASCALDLTVLAENSHQVGA [ADIPOR2, 56 aa reading frame in the 3′UTR of gene ADIPOR2]", "values": [{"measurement": "recognition of antigen peptides by specific T-cell clones", "setting": "T-cell clones of 135TIL; peptide titration, 135-1C1 (ADIPOR2), 135-1E1 (LAGE1b)", "value": "strongly recognized"}, {"measurement": "recognition of titrated peptides by 135TIL (IFN-γ ELISA)", "setting": "135TIL [1]", "value": "little or no activity"}]}
{"sequence": "YGMYFCMNISSQEDGACVLLRALEP [MPG, immunodominant MHC-I neoantigen of patient #135]", "values": [{"measurement": "share of tumor-reactive CD8^+ T cells specific for the neoantigen", "setting": "135TIL [2]", "value": 65, "unit": "%"}, {"measurement": "CD8^+ T cells recognizing the neoantigen in the total T cell population", "setting": "135TIL [2]; intracellular cytokine staining", "value": 12.3, "unit": "%"}, {"measurement": "neoantigen-specific TCRs in the total 135TIL TCRs", "setting": "135TIL [3]", "value": 25.5, "unit": "%"}, {"measurement": "percentage of CD8^+ tumor-reactive T-cell clones recognizing the neoantigen", "setting": "T-cell clones of 135TIL; 40 clones", "value": 67.5, "unit": "%"}, {"measurement": "number of CD8^+ tumor-reactive T-cell clones recognizing the neoantigen", "setting": "T-cell clones of 135TIL; of 40 clones", "value": 27}]}
